Reference: US20200369728A1, “PEPTIDOMIMETIC MACROCYCLES AND USES THEREOF” (Aileron Therapeutics, Inc., priority 2015, published 2020)
Entries after “also recorded” stand apart in the source; their conditions may differ. Read-outs that look alike come from different tables or passages of the source.

Tests used:
MOLT-3 = assay: WST-1 / MTT cell proliferation assay, MOLT-3; assay type: cell-based, human
Experimental: All media were supplemented with 10% (v/v) fetal calf serum, 100 units penicillin and 100 μg/ml streptomycin at 37° C. and 5% CO2.
One day prior to assaying, cells were trypsinized, counted and seeded at pre-determined densities in 96-well plates as follows: MCF-7, 5000 cells/well/200 μl; MOLT-3, 30,000 cells/well/200 μl. […] The WST-1 variant of the MTT assay was used to measure cell viability according to the manufacturer's protocol. WST-1 is a cell-impermeable, sulfonated tetrazolium salt that can be used to examine cell viability without killing the cells.
Initially, various MOLT-3 cell numbers were plated and evaluated 3-7 days later to determine the optimal number of cells to be plated and treatment duration.
Cells were evaluated for viability by WST-1 assay or MTT assay 3-7 days after beginning the sequential treatment (FIGS. 33 and 34).
Cells were evaluated for viability by WST-1 assay or MTT assay 3-7 days after beginning treatment with rituximab (FIGS. 68B and 69B) or romidepsin (FIGS. 71B and 72B).

MCF-7 = assay: CyQUANT cell viability, MCF-7; assay type: cell-based, human; settings: MCF-7, sequential treatment, 72 hrs
Experimental: Cells were also evaluated for viability using the CyQUANT method after beginning treatment (FIGS. 78A and 79A). Cells were evaluated for viability using the CyQUANT method after beginning the simultaneous treatments (FIGS. 78B and 79B). […] The data were expressed as log(CI).
The anticancer activity of the combination treatment was assessed based on the order of addition of the drugs.

p53-pathway [1] = assay: Western blot of p53-pathway, Molm13, OCI/AML3, Molm14 and ML2 cell lines; assay type: cell-based; settings: Molm13, OCI/AML3, Molm14 and ML2, 1.0 μM
Experimental: The Molm13, OCI/AML3, Molm14 and ML2 cell lines were treated with vehicle or 1.0 μM Aileron peptide (FIG. 1B).

primary AML cell line [2] = assay: Clonogenicity assay on primary AML cell lines; assay type: cell-based; settings: 0.1-1.0 μM
Experimental: A clonogenicity assay was then performed and the number of clonies was counted.

MV4-11 = assay: WST-1 / MTT cell viability, MV4-11
Experimental: Initially, various MV4-11 cell numbers were plated and evaluated 3-7 days later to determine the optimal number of cells to be plated and treatment duration.
Cells were evaluated for viability by WST-1 assay or MTT assay 3-7 days after beginning treatment.
(§2) A drug combination index plot was used to assess the synergistic, additive, or antagonistic properties of each combination treatment. […] Combination index (CI) values were calculated using the CompuSyn software. The data were expressed as log(CI).

p53 = p53 stabilization in AML cells (Western blot, dose and time); assay type: cell-based; settings: AML p53 wild type cell lines, 0.1-10.0 μM, 24, 48 or 72 hrs
Source text: (§3) Lysates were subjected to SDS-PAGE and probed by Western blotting with antibodies specific to MDM2, p53, p21, and β-Actin.

[3] = tested on: Molm13, OCI/AML3, Molm14, HL60 and ML2 cell lines; assay: Apoptosis assay of AML cell lines (DAPI / Annexin-V FACS); assay type: cell-based; settings: p53 wild type AML cell lines, 1.0, 5.0 or 10.0 μM
Experimental: (§1) Cells were probed with DAPI and a FITC-labeled anti-Annexin-V antibody. FACS analysis was performed to determine the number of viable cells and the number of cells in early apoptosis, late apoptosis and undergoing necrosis and the results were plotted.

primary AML cell line [4] = assay: Apoptosis assay on primary AML cell lines; assay type: cell-based; settings: primary AML cells, 1.0, 5.0 or 10.0 μM
Experimental: as §1

p53-pathway [5] = assay: Western blot of p53-pathway, primary AML cells; assay type: cell-based; settings: 1.0 or 5.0 μM
Source text: as §3

A375 = assay: Cell viability, A375 melanoma cell line (single agents and combinations); assay type: cell-based, human; settings: for combination effect with PLX4032 (Zelboraf, vemurafenib): B-Raf-mutant melanoma cell line A375
DOHH-2 = assay: WST-1 / MTT cell viability, DOHH-2; assay type: cell-based, human
Experimental: Initially, various DOHH-2 cell numbers were plated and evaluated 3-7 days later to determine the optimal number of cells to be plated and treatment duration.
as §2

[6] = tested on: Molm13, OCI/AML3, Molm14, HL60 and ML2 cell lines; assay: Clonogenicity assay on AML cell lines; assay type: cell-based; settings: p53 wild type cell lines, 1.0 μM
Experimental: A clonogenicity assay was then performed and the number of clonies was counted (FIG. 6).

Mel-Ho (V600E) = assay: Combination with PLX4032 in Mel-Ho; assay type: cell-based
p53-pathway [7] = assay: mRNA expression of p21, MDM2, Puma, Bax, Gadd45a in Molm13 and Oci/AML3; assay type: cell-based; settings: Molm13 and Oci/AML3, 0.1-10.0 μM
Source text: Expression levels were normalized to GAPDH mRNA expression levels.

[8] = MV4-11, sequential treatment, 72 hrs
[9] = DOHH-2, sequential treatment, 72 hrs

CC(=O)N[C@@H](CC(C)C)C(=O)N[C@H](C(=O)N[C@@H](Cc1ccccc1)C(=O)N[C@]1(C)CCCCCCC=CCCC[C@@](C)(C(=O)N[C@@H](C)C(=O)N[C@@H](C)C(=O)N[C@@H](C)C(=O)N[C@@H](C)C(=O)N[C@@H](C)C(=O)N[C@H](C)C(N)=O)NC(=O)[C@H](CC(C)C)NC(=O)[C@H](CCC(N)=O)NC(=O)[C@H](C)NC(=O)[C@H](Cc2c[nH]c3ccccc23)NC(=O)[C@H](Cc2ccc(O)cc2)NC(=O)[C@H](CCC(=O)O)NC1=O)[C@@H](C)O [Aileron peptide 1]
combination effect of AP1 with romidepsin (MOLT-3): enhances Aileron peptide 1 inhibition of cancer cell proliferation and cell killing
combination effect of AP1 with romidepsin (MOLT-3; listed as AP1): complementary in vitro anticancer activity; also recorded: mostly additive complimentarity
order of addition: effect on cell growth, AP1 and palbociclib (MCF-7): suppressed MCF-7 cell growth with or without palbociclib
activation of the p53-pathway (p53-pathway [1]): activates the p53-pathway
clonogenic capacity (primary AML cell line [2]): inhibited its clonogenic capacity to a higher extent
order of addition: effect on cell growth, AP1 and Ara-C (MV4-11; [8]): suppressed MV4-11 cell growth with or without Ara-C
order of addition: effect on cell growth, AP1 and azacitidine (MV4-11; [8]): suppressed MV4-11 cell growth with or without azacitidine
order of addition: effect on cell growth, AP1 and decitabine (MV4-11; [8]): suppressed MV4-11 cell growth with or without decitabine
order of addition: effect on cell growth, AP1 and midostaurin (MV4-11; [8]): suppressed MV4-11 cell growth with or without midostaurin
combination effect of AP1 with Ara-C (MV4-11; MV4-11, listed as AP1): complementary in vitro anticancer activity; also recorded: mostly additive with some degree of synergy; also recorded: additive or better complimentarity
combination effect of AP1 with azacitidine (MV4-11; MV4-11, listed as AP1): complementary in vitro anticancer activity; also recorded: mostly additive with some synergy; also recorded: additive or better complimentarity
combination effect of AP1 with decitabine (MV4-11; MV4-11, listed as AP1): complementary in vitro anticancer activity; also recorded: mostly additive; also recorded: additive or better complimentarity
combination effect of AP1 with midostaurin (MV4-11; MV4-11, listed as AP1): complementary in vitro anticancer activity; also recorded: mostly synergistic; also recorded: additive or better complimentarity
p53 stabilization (p53): stabilizes p53 in a time and dose dependant manner
apoptotic cell death [3]: induces apoptotic cell death
apoptotic cell death (primary AML cell line [4]): induces apoptotic cell death
activation of the p53-pathway (p53-pathway [5]): activates the p53-pathway
combination effect with PLX4032 (Zelboraf, vemurafenib) (A375): synergy
combination effect with PLX4032 (Zelboraf, vemurafenib) (A375; listed as AP1): additive or better complimentarity
EC50 (A375; single agent, read-out: EC50 on A375 cells): 70 nM
combination effect of AP1 with rituximab (DOHH-2; DOHH-2 (figure legends), listed as AP1): complementary in vitro anticancer activity; also recorded: additive or better complimentarity
order of addition: effect on cell growth, AP1 and CTX (DOHH-2; [9]): suppressed DOHH-2 cell growth with or without CTX
order of addition: effect on cell growth, AP1 and VCR (DOHH-2; [9]): suppressed DOHH-2 cell growth with or without VCR
combination effect of AP1 with CTX (DOHH-2; DOHH-2, listed as AP1): complementary in vitro anticancer activity; also recorded: synergistic; also recorded: additive or better complimentarity
combination effect of AP1 with VCR (DOHH-2; DOHH-2, listed as AP1): complementary in vitro anticancer activity; also recorded: mostly synergistic; also recorded: additive or better complimentarity
EC50 (DOHH-2; single agent, read-out: EC50 on DOHH-2 cells): 60 nM
clonogenic capacity [6]: inhibited their clonogenic capacity
combination effect with PLX4032 (Zelboraf) (Mel-Ho (V600E)): synergy
activation of the p53-pathway (mRNA normalized to GAPDH) (p53-pathway [7]): activates the p53-pathway
